Patent US9926299B2, “Inhibitors of bruton's tyrosine kinase” (Centaurus BioPharma Co., Ltd., priority 2012, dated 2018)

Columns and labels:
BTK kinase = BTK kinase (Homo sapiens (Human), UniProt Q06187); assay: Btk kinase enzymatic assay (HTRF); assay type: biochemical; conditions: ATP at Km
Experimental: Btk kinase activity was determined using a Homogeneous Time-Resolved Fluorescence (HTRF) methodology (Cisbio). […] The mixture was centrifuged and incubated for 5 min. […] For each compound, enzyme activity was measured at various concentrations of compound, and IC50s were obtained by GraFit Software 6.0 (Erithacus Software).

Ramos cells = assay: BCR-induced calcium flux fluorescence-based assay in Ramos cells; conditions: Ramos cells stimulated with goat anti-human IgM antibody; read-out: Ramos Cell Ca Flux IC50
Experimental: Calcium flux fluorescence-based assays were performed using Fluo-4 Direct™ Calcium Assay Kits (purchased from Invitrogen) in a FlexStation III (purchased from Molecular Devices) according to manufacturer instructions. In brief, actively growing Romas cells in RPM1-1640 medium (purchased from Invitrogen) supplemented with 10% FBS (purchased from Hyclone) were washed and re-plated in low serum medium at approximately 1×10^5 cells per 45 μL per well in a 96-well plate (purchased from Corning), then added 45 μL of dye (purchased from Invitrogen) and incubated at 37 degree for 1 hour. Compounds to be assayed were dissolved and 3-fold serially diluted in DMSO and then diluted by 100 times in low serum medium. Then 10 μL of the diluted mixture were added to the above 96-well plate (final DMSO concentration was 0.1%) and incubated at 37 degree in 5% CO2 incubator for 0.5 hour. The compound-treated cells were stimulated with a goat anti-human IgM antibody (10 μg/ml; purchased from SouthernBiotech) and read in the FlexStation III using a λEx=494 nM and […] for 90 seconds. The relative fluorescence unit (RFU) and the IC50 were recorded and analyzed using a GraphPad Prism 5 (GraphPad Software).

BTK kinase, sequence (Q06187 whole entry): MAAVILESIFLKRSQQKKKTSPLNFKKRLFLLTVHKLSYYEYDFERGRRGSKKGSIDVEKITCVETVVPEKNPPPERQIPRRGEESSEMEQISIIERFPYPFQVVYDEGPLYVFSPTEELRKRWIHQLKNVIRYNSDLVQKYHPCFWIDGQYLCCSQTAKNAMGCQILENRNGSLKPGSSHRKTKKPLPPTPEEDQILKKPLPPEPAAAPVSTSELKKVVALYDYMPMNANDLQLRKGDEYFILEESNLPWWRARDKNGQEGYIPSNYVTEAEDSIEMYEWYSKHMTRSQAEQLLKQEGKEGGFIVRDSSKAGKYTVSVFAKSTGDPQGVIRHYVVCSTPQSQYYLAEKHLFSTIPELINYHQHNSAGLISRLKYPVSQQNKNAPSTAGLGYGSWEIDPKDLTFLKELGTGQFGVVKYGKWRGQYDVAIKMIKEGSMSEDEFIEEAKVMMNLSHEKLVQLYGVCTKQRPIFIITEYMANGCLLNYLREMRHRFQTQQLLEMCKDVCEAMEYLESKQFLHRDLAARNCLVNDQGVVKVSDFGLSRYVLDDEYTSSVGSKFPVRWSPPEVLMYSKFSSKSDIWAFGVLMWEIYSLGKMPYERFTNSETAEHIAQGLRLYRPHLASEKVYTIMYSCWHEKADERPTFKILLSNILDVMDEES

| Compound | IC50 (BTK kinase) [nM] | IC50 (Ramos cells) [nM] |
| --- | --- | --- |
| C=CS(=O)(=O)N(C)CCn1nc(-c2ccc(Oc3ccccc3)cc2)c(C(N)=O)c1N [Example 33, 5-amino-1-(2-(N-methylvinylsulfonamido)ethyl)-3-(4-phenoxyphenyl)-1H-pyrazole-4-carboxamide] | < 100 | < 100 |
| CN(C)C/C=C/C(=O)N1CCCC(n2nc(-c3ccc(Oc4ccccc4)cc3)c(C(N)=O)c2N)C1 (stereo not shown) [Example 29, (E)-5-amino-1-(1-(4-(dimethylamino)but-2-enoyl)piperidin-3-yl)-3-(4-phenoxyphenyl)-1H-pyrazole-4-carboxamide] | < 100 | < 100 |
| C=CC(=O)N1CCCC(n2nc(-c3ccc(Oc4ccccc4)cc3)c(C(N)=O)c2NCCN2CCN(C)CC2)C1 (stereo not shown) [Example 15, 1-(1-acryloylpiperidin-3-yl)-5-(2-(4-methylpiperazin-1-yl)ethylamino)-3-(4-phenoxy-phenyl)-1H-pyrazole-4-carboxamide] | < 100 | < 100 |
| C=CC(=O)N1CC[C@@H](n2nc(-c3ccc(Oc4ccc(OC)cc4)cc3)c(C(N)=O)c2N)C1 [Example 46, (R)-1-(1-acryloylpyrrolidin-3-yl)-5-amino-3-(4-(4-methoxyphenoxyl)phenyl)-1H-pyrazole-4-carboxamide] | < 100 | < 100 |
| NC(=O)c1c(-c2ccc(Oc3ccccc3)cc2)nn(C2CCCN(C(=O)CCl)C2)c1N (stereo not shown) [Example 28, 5-amino-1-(1-(2-chloroacetyl)piperidin-3-yl)-3-(4-phenoxyphenyl)-1H-pyrazole-4-carboxamide] | < 100 | < 100 |
| CN(C)C/C=C/C(=O)N(C)CCn1nc(-c2ccc(Oc3ccccc3)cc2)c(C(N)=O)c1N [Example 35, (E)-5-amino-1-(2-(4-(dimethylamino)-N-methylbut-2-enamido)ethyl)-3-(4-phenoxyphenyl)-1H-pyrazole-4-carboxamide] | < 100 | < 100 |
| C=CC(=O)N1CC[C@H](n2nc(-c3ccc(Oc4ccccc4)cc3)c(C(N)=O)c2N)C1 [25 (S-isomer)] | < 100 | < 100 |
| C=CC(=O)N1CCC(n2nc(-c3ccc(Oc4ccccc4)cc3)c(C(N)=O)c2N)C1 (stereo not shown) [Example 25, 1-(1-acryloylpyrrolidin-3-yl)-5-amino-3-(4-phenoxyphenyl)-1H-pyrazole-4-carboxamide] | < 100 | < 100 |
| C=CS(=O)(=O)N1CCC[C@@H](n2nc(-c3ccc(Oc4ccccc4)cc3)c(C(N)=O)c2N)C1 [27 (R-isomer)] | < 100 | < 100 |
| C=CC(=O)N1CCC[C@@H](n2nc(-c3ccc(Oc4ccccc4)cc3)c(C(N)=O)c2NC)C1 [Example 2, (R)-1-(1-acryloylpiperidin-3-yl)-5-(methylamino)-3-(4-phenoxyphenyl)-1H-pyrazole-4-carboxamide] | < 100 | < 100 |
| C#CC(=O)N1CCCC(n2nc(-c3ccc(Oc4ccccc4)cc3)c(C(N)=O)c2N)C1 (stereo not shown) [Example 26, 5-amino-3-(4-phenoxyphenyl)-1-(1-propioloylpiperidin-3-yl)-1H-pyrazole-4-carboxamide] | < 100 | < 100 |
| C=CC(=O)N1CCCC(n2nc(-c3ccc(Oc4ccccc4)cc3)c(C(N)=O)c2NCC)C1 (stereo not shown) [Example 6, 1-(1-acryloylpiperidin-3-yl)-5-(ethylamino)-3-(4-phenoxyphenyl)-1H-pyrazole-4-carboxamide] | < 100 | < 100 |
| C=CC(=O)N1CCCC(n2nc(-c3ccc(Oc4ccccc4)cc3)c(C(N)=O)c2N)C1 (stereo not shown) [Example 22, 1-(1-acryloylpiperidin-3-yl)-5-amino-3-(4-phenoxyphenyl)-1H-pyrazole-4-carboxamide] | – | < 100 |

Second part, the compound after the results:

| IC50 (BTK kinase) [nM] | IC50 (Ramos cells) [nM] | Compound |
| --- | --- | --- |
| < 100 | < 100 | C=CC(=O)N1CCCC(n2nc(-c3ccc(Oc4ccccc4)cc3)c(C(N)=O)c2NC)C1 (stereo not shown) [Example 1, 1-(1-acryloylpiperidin-3-yl)-5-(methylamino)-3-(4-phenoxyphenyl)-1H-pyrazole-4-carboxamide] |
| – | < 100 | C=CC(=O)N1CCC[C@@H](n2nc(-c3ccc(Oc4ccccc4)cc3)c(C(N)=O)c2N)C1 [Example 18, (R)-1-(1-acryloylpiperidin-3-yl)-5-amino-3-(4-phenoxyphenyl)-1H-pyrazole-4-carboxamide] |
| < 100 | < 100 | C=CC(=O)NCCn1nc(-c2ccc(Oc3ccccc3)cc2)c(C(N)=O)c1N [Example 31, 1-(2-acrylamidoethyl)-5-amino-3-(4-phenoxyphenyl)-1H-pyrazole-4-carboxamide] |
| < 100 | < 100 | NC(=O)c1c(-c2ccc(Oc3ccccc3)cc2)nn(C2CCCCC2)c1N [Example 20, 5-amino-1-cyclohexyl-3-(4-phenoxyphenyl)-1H-pyrazole-4-carboxamide] |
| < 100 | < 100 | C=CC(=O)N1CCCC(n2nc(-c3ccc(Oc4ccccc4)cc3)c(C(N)=S)c2N)C1 (stereo not shown) [Example 37, 1-(1-acryloylpiperidin-3-yl)-5-amino-3-(4-phenoxyphenyl)-1H-pyrazole-4-carbothioamide] |
| < 100 | < 100 | C=CC(=O)N1CC[C@@H](n2nc(-c3ccc(Oc4cccc(C(F)(F)F)c4)cc3)c(C(N)=O)c2N)C1 [Example 44, (R)-1-(1-acryloylpyrrolidin-3-yl)-5-amino-3-(4-(3-(trifluoromethyl)phenoxy)phenyl)-1H-pyrazole-4-carboxamide] |
| < 100 | < 100 | C=CC(=O)N1CC[C@@H](n2nc(-c3ccc(Oc4ccccc4)cc3)c(C(N)=O)c2N)C1 [25 (R-isomer)] |
| < 100 | < 100 | C=CC(=O)N1CCCC(n2nc(-c3ccc(Oc4ccccc4)cc3)c(C(N)=O)c2NCCN2CCOCC2)C1 (stereo not shown) [Example 13, 1-(1-acryloylpiperidin-3-yl)-5-(2-morpholinoethylamino)-3-(4-phenoxy-phenyl)-1H-pyrazole-4-carboxamide] |
| < 100 | < 100 | C=CS(=O)(=O)N1CCCC(n2nc(-c3ccc(Oc4ccccc4)cc3)c(C(N)=O)c2N)C1 (stereo not shown) [Example 27, 5-amino-3-(4-phenoxyphenyl)-1-(1-(vinylsulfonyl)piperidin-3-yl)-1H-pyrazole-4-carboxamide] |
| – | < 100 | C=CC(=O)N1CCC[C@H](n2nc(-c3ccc(Oc4ccccc4)cc3)c(C(N)=O)c2N)C1 [Example 23, (S)-1-(1-acryloylpiperidin-3-yl)-5-amino-3-(4-phenoxyphenyl)-1H-pyrazole-4-carboxamide] |
| < 100 | < 100 | C=CC(=O)N1CC[C@@H](n2nc(-c3ccc(Oc4cccc(OC)c4)cc3)c(C(N)=O)c2N)C1 [Example 42, (R)-1-(1-acryloylpyrrolidin-3-yl)-5-amino-3-(4-(3-methoxyphenoxyl)phenyl)-1H-pyrazole-4-carboxamide] |
| < 100 | < 100 | C=CC(=O)N1CC[C@@H](n2nc(-c3ccc(Oc4cc(F)cc(F)c4)cc3)c(C(N)=O)c2N)C1 [Example 41, (R)-1-(1-acryloylpyrrolidin-3-yl)-5-amino-3-(4-(3,5-difluorophenoxyl)phenyl)-1H-pyrazole-4-carboxamide] |
| < 100 | < 100 | C=CC(=O)N1CC[C@@H](n2nc(-c3ccc(Oc4ccc(C)c([N+](=O)[O-])c4)cc3)c(C(N)=O)c2N)C1 [Example 48, (R)-1-(1-acryloylpyrrolidin-3-yl)-5-amino-3-(4-(4-methyl-3-nitrophenoxy)phenyl)-1H-pyrazole-4-carboxamide] |
